In patent US6350742B1, “Compositions and methods for treating infections of the ear” (Carter-Wallace, Inc., priority 1998, dated 2002):

Assays:
[1] = solubility in aqueous solutions and organic solvents; assay type: physicochemical
[2] = pH of a saturated solution in deionized water; assay type: physicochemical
[3] = apparent partition coefficient between octanol and water; assay type: physicochemical; conditions: water buffered at pH 7.2
[4] = stability in the solid state; assay type: physicochemical; conditions: stored at ambient conditions
[5] = stability in aqueous solution; assay type: physicochemical; conditions: pre-packed and stored
[6] = system: antibiotic resistant strains of H.pylori, staphylococci, streptococci, enterococci; experiment: activity against antibiotic resistant bacteria; conditions: enterococci and other bacterial and nosocomial infections
[7] = system: microbiota indigenous to the human ear; experiment: activity against microbiota of the ear
[8] = cited from earlier work
[9] = system: mice; conditions: cited from earlier work

## O=S1(=O)CCN(CN2CCS(=O)(=O)NC2)CN1 [Taurolidine, 4,4′-methylenebis (tetrahydro-1,2,4-thiadiazine)-1,1,1′,1′ tetraoxide]
[1]; CHCl3
  solubility: insoluble
[1]; Dilute HCl
  solubility: soluble
[1]; Dilute NaOH
  solubility: soluble
[1]; EtOH
  solubility: sparingly soluble
[1]; Water, 20° C.
  solubility: 1% at 20 °C
[2]
  pH of saturated solution: 7.4
[3]
  apparent partition coefficient between octanol and water: approximately 0.13
[4]
  stability in the solid state: acceptable stability in the solid state
[5]
  stability in aqueous solution: stored over relatively long periods
[6]
  effect on antibiotic resistant strains: destroys antibiotic resistant strains
[7]
  effect on growth of microbiota indigenous to the human ear: eradicates or controls the growth
[8]; cumulative doses
  cumulative dose shown to be safe and well tolerated: exceeding 300 g
[8]; systemic doses
  systemic dose shown to be safe and well tolerated: exceeding 40 g/day
[9]
  teratogenicity: non-teratogenic
